Data reported in paper doi:10.1101/2021.06.27.450110v1 (bioRxiv, 2021).
Where a SMILES comes first, the peptide text is derived from it. Bridges are numbered along the chain shown (N, C = ends).

Key:
red blood cells (RBCs) = experiment: Red blood cell hemolysis assay; assay type: cell-based, human; conditions: for fold less hemolytic than native tachyplesin I and polyphemusin I: from RBC CC50; for lysis of RBCs: incubation with 128 µM peptide, 37 °C, 1 h
BMMs = experiment: Flow cytometry to measure peptide internalization; assay type: cell-based, mouse; conditions: Alexa Fluor 488-labelled peptides, 1 h
[1] = system: Burkholderia pseudomallei strains MSHR1364, MSHR2154 and MSHR10517; conditions: 24 h
BMMs infected with EC958 = experiment: Microscopy to determine location of peptides inside infected BMMs; assay type: cell-based, mouse; conditions: 8 µM A488-labelled peptide, 1 h, fixed cells, confocal microscopy
EC958 WT = experiment: Co-treatment of planktonic bacteria with peptides and zinc; assay type: cell-based, Escherichia coli; conditions: 0.1 mM zinc
EC958ΔzntA = experiment: as above; assay type: cell-based, Escherichia coli; conditions: 0.1 mM zinc

Compound	fold less hemolytic than native tachyplesin I and polyphemusin I (red blood cells (RBCs))	lysis of RBCs (red blood cells (RBCs)) [%]	concentration required to internalize 50% of cells compared to tachyplesin I (BMMs)	Antimicrobial activity: MIC, Burkholderia pseudomallei [1] [µM]	other results
CC(C)[C@@H]1NC(=O)[C@H](CCCNC(=N)N)NC(=O)[C@H](Cc2ccccc2)NC(=O)[C@@H](NC(=O)[C@H](Cc2c[nH]c3ccccc23)NC(=O)[C@@H](N)CCCCN)CSSC[C@@H](C(=O)N[C@@H](CCCNC(=N)N)C(N)=O)NC(=O)[C@H](CCCNC(=N)N)NC(=O)[C@H](CCCNC(=N)N)NC(=O)[C@H](Cc2ccc(O)cc2)NC(=O)[C@@H]2CSSC[C@H](NC1=O)C(=O)N[C@@H](Cc1ccc(O)cc1)C(=O)N[C@@H](CCCNC(=N)N)C(=O)NCC(=O)N[C@@H](CO)C(=O)N2 [[I11S]tachyplesin I] (H-KWCFRVCYRGSCYRRCR-NH2; disulfide 3-16, 7-12)	at least 3 fold	< 50	> ten-fold lower concentrations		
CC(C)[C@@H]1NC(=O)[C@H](CCCNC(=N)N)NC(=O)[C@H](Cc2ccccc2)NC(=O)[C@@H](NC(=O)[C@H](Cc2c[nH]c3ccccc23)NC(=O)[C@H](CCCNC(=N)N)NC(=O)[C@@H](N)CCCNC(=N)N)CSSC[C@@H](C(=O)N[C@@H](CCCNC(=N)N)C(N)=O)NC(=O)[C@H](CCCCN)NC(=O)[C@H](CCCNC(=N)N)NC(=O)[C@H](Cc2ccc(O)cc2)NC(=O)[C@@H]2CSSC[C@H](NC1=O)C(=O)N[C@@H](Cc1ccc(O)cc1)C(=O)N[C@@H](CCCNC(=N)N)C(=O)NCC(=O)N[C@@H](Cc1ccccc1)C(=O)N2 [Polyphemusin-I] (H-RRWCFRVCYRGFCYRKCR-NH2; disulfide 4-17, 8-13)				> 64	
CC[C@H](C)[C@@H]1NC(=O)CNC(=O)[C@H](CCCNC(=N)N)NC(=O)[C@H](Cc2ccc(O)cc2)NC(=O)[C@@H]2CSSC[C@H](NC1=O)C(=O)N[C@@H](Cc1ccc(O)cc1)C(=O)N[C@@H](CCCNC(=N)N)C(=O)N[C@@H](CCCNC(=N)N)C(=O)N[C@H](C(=O)N[C@@H](CCCNC(=N)N)C(N)=O)CSSC[C@H](NC(=O)[C@H](Cc1c[nH]c3ccccc13)NC(=O)[C@@H](N)CCCCN)C(=O)N[C@@H](Cc1ccccc1)C(=O)N[C@@H](CCCNC(=N)N)C(=O)N[C@@H](C(C)C)C(=O)N2 [Tachyplesin I] (H-KWCFRVCYRGICYRRCR-NH2; disulfide 3-16, 7-12)				> 64	
CC(C)C[C@H](NC(=O)[C@H](CCCNC(=N)N)NC(=O)CNC(=O)CNC(=O)[C@@H](N)CCCNC(=N)N)C(=O)N[C@H]1CSSC[C@@H](C(=O)N[C@H](C(=O)NCC(=O)N[C@@H](CCCNC(=N)N)C(N)=O)C(C)C)NC(=O)[C@H](C(C)C)NC(=O)[C@@H]2CSSC[C@H](NC(=O)[C@H](Cc3ccc(O)cc3)NC1=O)C(=O)N[C@@H](CCCNC(=N)N)C(=O)N[C@@H](CCCNC(=N)N)C(=O)N[C@@H](CCCNC(=N)N)C(=O)N[C@@H](Cc1ccccc1)C(=O)N2 [Protegrin-I]				> 64	
CC(C)[C@@H]1NC(=O)[C@H](CCCNC(=N)N)NC(=O)[C@H](Cc2ccccc2)NC(=O)[C@@H](NC(=O)[C@H](Cc2c[nH]c3ccccc23)NC(=O)[C@@H](N)CCCCN)CSSC[C@@H](C(=O)N[C@@H](CCCNC(=N)N)C(N)=O)NC(=O)[C@H](CCCNC(=N)N)NC(=O)[C@H](CCCNC(=N)N)NC(=O)[C@H](Cc2ccc(O)cc2)NC(=O)[C@@H]2CSSC[C@H](NC1=O)C(=O)N[C@@H](Cc1ccc(O)cc1)C(=O)N[C@@H](CCCNC(=N)N)C(=O)NCC(=O)N[C@@H](C)C(=O)N2 [[I11A]tachyplesin I] (H-KWCFRVCYRGACYRRCR-NH2; disulfide 3-16, 7-12)	at least 3 fold	< 50	> ten-fold lower concentrations		intracellular localization in BMMs infected with EC958 (BMMs infected with EC958): locates mainly within vesicles
O=S(=O)([O-])[O-].[Zn+2] [zinc, zinc sulfate]					growth of EC958 WT with zinc alone (EC958 WT): does not significantly inhibit; growth of EC958ΔzntA with zinc alone (EC958ΔzntA): does not significantly inhibit
